The values that follow come from patent US11452737B2, “Compositions and methods for treating vascular malformation and related conditions” (priority 2015, dated 2022).

Test [1] relates to HEK293T cells with pcDNA3.1-E, -GNAQ, -R183Q or -Q209L plasmids. As to the kind of experiment: RT-PCR gene expression with or without puromycin treatment. It is filed as cell-based, human. The protocol: A panel of genes, important to the regulation of the pathways downstream of GNAQ, were evaluated by RT-PCR in mRNA samples gathered from cells with the pcDNA3.1-E, pcDNA3.1-GNAQ, pcDNA3.1-R183Q or pcDNA3.1-Q209L plasmids with or without puromycin treatment of 0.04 ug/ul (FIGS. 6A-6F, n=3 per group from 3 separate experiments).
HEK293T cells (5×10^5 cells/well) were transfected with 1 μg plasmid (pcDNA3.1-GNAQ, pcDAN3.1-R183Q or pcDNA3.1-Q209L) in 6-well plates. Twenty-four (24) hours later, cells were digested and re-plated into 6-well plates. Twenty-four (24) hours later, the plates were incubated in DMEM (10% FBS) with or without 0.04 μg/ml puromycin. Three days later, total RNA of treated HEK293T cells were isolated by using RNEASY® Mini Kit (QIAGEN) as follows. Media was aspirated, and the cells washed twice with PBS. 350 μl Buffer RLT with B-Mercaptoethanol was added to the each well. The lysate was pipetted into a microcentrifuge tube and pipetted to mix. 1 volume of 70% ethanol was added to the lysate. Lysate was transferred to an RNEASY® spin column placed in a 2 ml collection tube (supplied) and centrifuged. RNEASY® spin column was washed as per kit instructions. 50 μl RNase-free water was added directly to the center of the spin column membrane which was centrifuged for 1 min at 12,000 rpm to elute the RNA. Three separate experiments were performed to obtain triplicate mRNA and protein samples for analysis.
Reverse Transcription was carried out with the using the High Capacity cDNA Reverse Transcription Kits and based on Applied Biosystems' protocol. 2×RT master mix is prepared using the kit components before preparing the reaction plate and kit components allowed to thaw on ice. Referring to one reaction amount of components, the volume of components needed to prepare the required number of reactions was calculated. Then 10 μl of 2×RT master mixes was pipetted into each well of 500 μl PCR clean tubes. 10 μL of RNA sample (1 μg) was pipetted into each tube which is then mixed, centrifuged and then placed in a thermal cycler with the program of (10 min at 25° C., 120 min at 37° C., 5 min at 85° C., then 4° C.). After the thermal cycler, 1 μl RNase H was added into the tubes and incubated at 37° C. for 20 min. Finally, 600 μl Nuclease-free H2O was added into each tube.
The primers for Real-Time PCR were designed online with Primer-BLAST software tool. For each gene, at least three primers at different locations were designed based on the cDNA of the genes. The primer concentrations were normalized and were adjusted to 5 pmol/μ1. The real-time PCR reaction mixture of 20 μl included 10 μl SYBR Green Mix (2×), 2 μl primer pair mix, and 8 μl diluted cDNA solution. The Real-time PCR of loaded samples were run on CFX Connect™ real-time PCR system (Bio-rad) with extension steps of (50° C. 2 min 1 cycle, 95° C. 10 min 1 cycle, 95° C. 15 sec then 60° C. 1 min 40 cycles, 72° C. 10 min, 1 cycle) followed by a melting curve analysis (from 55° C. to 95° C. increments 0.05° C./Sec) to guarantee absence of nonspecific amplification. The primers with a unique peak in melting curve were chosen for next step. The primers were also only used for next experiments after they were confirmed by obtaining the same results from other primers for the same gene. With the final confirmed primers, the RNA levels in triplicate samples, obtained from three separate experiments, were measured.

Test [2] concerns HEK293T cells with GNAQ constructs. As to the kind of experiment: Western blot of protein levels after puromycin treatment. It counts as cell-based, human. On the procedure: Treated cells were harvested with ice-cold radioimmunoprecipitation assay (RIPA) buffer (150 mM NaCl, 1.0% IGEPAL® CA-630, 0.5% sodium deoxycholate, 0.1% SDS, and 50 mM Tris, pH 8.0) (Sigma-Aldrich) plus phosphatase inhibitor cocktail (Cell signaling technology, #5870) and analyzed by western blot as follows: Quantitative protein samples were denatured in 4×LDS Sample buffer (Invitrogen) at 100° C. for 6 minutes. Samples were then subjected to SDS-PAGE by using Bio-Rad 4-15% gradient gels and transferred to PVDF membrane. The membranes were blocked with Li-cor ODYSSEY® Blocking buffer for 30 minutes at room temperature. Then the membranes were incubated with primary antibody (GaQ 1:125, Santa Cruz Biotechnology, sc-393; p-ERK 1:1000, Cell Signaling Technology, 4370; ERK 1:1000, Cell signaling Technology, 4696; HSP90 1:1000, Cell Signaling Technology, 4877) in a 1:1 solution of Li-cor ODYSSEY® blocking buffer and Tris-Buffered Saline and 0.1% Tween 20 (TBST) overnight at 4° C. The membranes were then washed three times for 10 min each in Tris-Buffered Saline and 0.1% Tween 20 (TBST) then probed with goat anti-mouse (IR-Dye 680RD) or goat anti Rabbit (IR-Dye-800CW) labeled secondary antibody in 1:1 Li-cor ODYSSEY® blocking buffer to TBST for 1 hour at room temperature. […] Bands were quantified using Image J software program.
In general terms: A western blot detects proteins with antibodies after separation by electrophoresis.

The subject of test [3] is HEK293T cells transiently transfected with pcDNA3.1-E, pcDNA3.1-GNAQ, pcDNA3.1-R183Q, pcDNA3.1-Q209L. As to the kind of experiment: Puromycin dose response curve, CellTiter 96 cell proliferation assay, 96-well plates. It counts as cell-based. As to conditions: Homo sapiens, HEK-293T, 72 h, 3 days, read-out: half maximal inhibitory concentration (IC50). On the procedure: FIG. 5 is a plot showing a dose response curve for puromycin. HEK 293T cells (5×10^5 cells/well in six-well plate) were transiently transfected with pcDNA3.1-E, pcDNA3.1-GNAQ, pcDNA3.1-R183Q, pcDNA3.1-Q209L. Twenty-four (24) hours later, the cells were digested, counted and aliquoted into 96-well plates. Twenty-four (24) hours later, the cells were incubated with a series of puromycin concentrations. Three days later, the relative cell numbers were detected using a cell proliferation assay.
A dose response curve (cell number in response to puromycin concentration) for HEK293T cells transiently transfected pcDNA3.1-E, pcDNA3.1-GNAQ, pcDNA3.1-R183Q and pcDNA3.1-Q209L and treated with puromycin is shown in FIG. 5. Cells expressing either the pcDNA3.1-R183Q or pcDNA3.1-Q209L plasmids were more sensitive to puromycin compared with cells transfected with the pcDNA3.1-E or pcDNA3.1-GNAQ plasmids.
HEK293T cells (5×10^5 cells/well) in 6 well-plates were transiently transfected with 1 μg (pcDNA3.1-E, pcDNA3.1-GNAQ, pcDAN3.1-R183Q and pcDNA3.1-Q209L) per well using FUGENE 6®. Twenty-four (24) hours later, the cells were digested, counted and aliquoted into 96-well plates (1×10^4 cells/well). After another 24 hours, the transfected cells were incubated with a 100-fold concentration series of puromycin. Three days later, the relative cell numbers were detected using CELLTITER 96® Aqueous One Solution Cell Proliferation Assay Reagents (Promega #G3582) as follows: After being thawed at room temperature, 10 μl of CELLTITER 96® Aqueous One Solution Reagent was pipet into each well of the 96-well assay plate containing the samples in 100 μl of culture medium. Then, the plates were incubated at 37° C. for 2 hours in a humidified, 5% CO2 atmosphere. The absorbance at 490 nm of each sample was read by using SpectraMAX M5. Readings were normalized to that in pcDNA3.1-GNAQ cells receiving vehicle. Results were analyzed in GraphPad. Experiment was done in quadruplicate samples.

Another test has as its system untransformed HMECs. As to the kind of experiment: Puromycin dose response curve in untransformed HMECs. It counts as cell-based, human. As to conditions: 1 ug/ml puromycin, after 48 hours.
Test [4] concerns HEK293T cells transiently transfected with empty, wildtype, R183Q, or Q209L constructs. As to the kind of experiment: MTT assay dose response curve for puromycin, 24 well plate, transiently transfected cells. It counts as cell-based. As to conditions: Homo sapiens, HEK-293T, 72 h, puromycin 3 days, read-out: Half maximal inhibitory concentration (IC50), cell number. The protocol:
FIG. 1 is a plot showing response of cells as a function of puromycin concentration. HEK293T cells were transiently transfected with empty, wildtype, R183Q, or Q209L constructs and then exposed to puromycin for 3 days before cell number was assessed by MTT assay in 24 well plate.
To determine whether mutations in GNAQ conferred increased sensitivity to puromycin, an MTT (3-(4,5-dimethylthiazol-2-yl)-2,5-diphenyltetrazolium bromide) assay dose response curve was done with HEK239 cells (including standard curve and normalization) after transient transfection. Puromycin exposure in HEK293 cells transiently transfected with R183Q or Q209L (no puromycin selection) over greater than a 100 fold dose range was then tested.
HEK 293 cells (5×10^5 cells/well) in 6 well-plates were transient transfected with 1 μg of construct (pcDNA3.1-GNAQ, pcDAN3.1-R183Q and pcDNA3.1-Q209L) per well. Twenty-four (24) hours later, the cells were digested, counted and aliquoted into 24 well plates (0.8×10^5 cells/well). After another 24 hours, the transfected cells were incubated with various concentrations of puromycin.
Three days later, the relative cell numbers were detected using MTT assay reagents (CellTiter 96® Aqueous One Solution Cell Proliferation Assay Reagents) as follows. After being thawed at room temperature, 40 μl the CellTiter 96® Aqueous One Solution Reagent was pipetted into each well of the 24-well assay plate containing the samples in 200 μl of culture medium. Then, the plates were incubated at 37° C. for 2 hours in a humidified, 5% CO2 atmosphere. The supernatants were transferred into 96-well plates. The absorbance at 490 nm of each sample was read by using a plate reader (SpectraMax M5). Optical density directly correlated with viable cell quantity.
A software program (GraphPad Prism) was used to generate Dose Response Curves. A non-linear regression was done to graph the Log [puromycin molar concentration] versus Maximal Inhibitory Response. The GraphPad program was used to calculate the IC50 of puromycin for each cell line (dose that gives a 50% maximal response) and the 95% confidence intervals. A 2-way ANOVA (Dose by Construct) was done to determine if there is a significant effect of construct upon puromycin effect with p-value of <0.05 used to determine significance.
(Tetrazolium dyes change colour on reduction, which living cells bring about.)

The mark [5] stands for this setting: all three constructs, puromycin alone, significant.

In brackets after ≈: the same amount, converted by molar mass. Read-outs that look alike come from different tables or passages of the source.

In the case of `COc1ccc(C[C@H](N)C(=O)N[C@H]2[C@@H](O)[C@H](n3cnc4c(N(C)C)ncnc43)O[C@@H]2CO)cc1` [puromycin], the “ID3 mRNA levels” value in test [1] (R183Q and Q209L mutant cells, puromycin, compared to wildtype puromycin treated and vehicle treated mutant cells) is on record as “upregulated”; in test [1] (wildtype cells, puromycin 0.04 ug/ml, compared to vehicle treated), “up-regulated”. Also, the “TRIO mRNA levels” value in test [1] (all three constructs, puromycin alone, not significant) is on record as “up-regulated”. Besides, in test [1] (setting [5]), the “PRKCQ mRNA levels” value was “up-regulated”. In addition, in test [1] (setting [5]), the “TEAD3 mRNA levels” value is on record as “up-regulated”. Moreover, the “PIK3C2B mRNA levels” value in test [1] (all three constructs, puromycin alone, significant only in Q209L cells) is “up-regulated”. For the same molecule, the “TSC22D3 mRNA levels” value in test [1] (cells expressing R183Q or Q209L plasmids, puromycin 0.04 ug/ml) is recorded as “further decreased”. Also, the “TSC22D3 mRNA expression” value in test [1] (wildtype cells, puromycin 0.04 ug/ml, compared to vehicle treated wildtype) is “decreased”. For the same molecule, the ID3 protein levels entry in test [2] (puromycin treatment, pcDNA3.1-GNAQ, pcDNA3.1-R183Q or pcDNA3.1-Q209L cells) is recorded as “further increased”. Further, the Gαq protein levels result in test [2] (puromycin versus vehicle treated cells) was “No significant differences”. Besides, the IC50 in test [3] (HEK293T with pcDNA3.1-E (empty)) worked out at 0.084 µg/mL (≈ 0.178 µM); in test [3] (HEK293T with pcDNA3.1-GNAQ (wildtype)), 0.091 µg/mL (≈ 0.193 µM); in test [3] (HEK293T with pcDNA3.1-Q209L) it was 0.051 µg/mL (≈ 0.108 µM); in test [3] (HEK293T with pcDNA3.1-R183Q), 0.064 µg/mL (≈ 0.136 µM); in test [4] (Q209L construct), 190 nM; in test [4] (R183Q construct), 190 nM. Also, the IC50 in test [4] (empty construct) and in test [4] (wildtype GNAQ construct) was 290 nM in each case. Further, in the test with untransformed HMECs, the cells killed is listed as 100%.
